Assays:
[1] = system: MCF7, hormone-independent human breast cancer cells; assay: Proliferation assay, MCF7; format: cell-based; settings: MCF7, 96 h, 4 days incubation, crystal violet
Summary of the method: (§1)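 Cells seeded ~5000/well, treated after 24 h with 0.01-30 μM compound (0.5% DMSO) for 4 days. Glutaraldehyde-fixed cells stained with crystal violet, absorbance at 595 nm; growth expressed as percent, normalized to zero-point plate (0%) and untreated cells (100%).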

CDK1/CycB = target: T1, CDK1/CycB (Homo sapiens, UniProt P06493); assay: CDK1/CycB Kinase Assay; format: biochemical; settings: histone IIIS substrate, 33P-ATP, 15 minutes at 22° C.
T1 construct: GST; purchased ProQinase GmbH, Freiburg; host or cells: baculovirus-infected insect cells (Sf9)
T1 sequence (P06493 whole entry): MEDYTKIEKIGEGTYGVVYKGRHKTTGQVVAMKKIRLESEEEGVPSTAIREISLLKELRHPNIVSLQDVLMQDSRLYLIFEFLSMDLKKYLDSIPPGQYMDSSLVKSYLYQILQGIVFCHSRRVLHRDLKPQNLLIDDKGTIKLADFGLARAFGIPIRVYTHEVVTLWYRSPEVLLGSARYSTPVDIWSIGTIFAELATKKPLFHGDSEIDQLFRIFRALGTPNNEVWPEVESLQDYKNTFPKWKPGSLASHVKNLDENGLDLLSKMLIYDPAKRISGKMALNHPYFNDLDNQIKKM
T1 sequence (P14635 whole entry partner): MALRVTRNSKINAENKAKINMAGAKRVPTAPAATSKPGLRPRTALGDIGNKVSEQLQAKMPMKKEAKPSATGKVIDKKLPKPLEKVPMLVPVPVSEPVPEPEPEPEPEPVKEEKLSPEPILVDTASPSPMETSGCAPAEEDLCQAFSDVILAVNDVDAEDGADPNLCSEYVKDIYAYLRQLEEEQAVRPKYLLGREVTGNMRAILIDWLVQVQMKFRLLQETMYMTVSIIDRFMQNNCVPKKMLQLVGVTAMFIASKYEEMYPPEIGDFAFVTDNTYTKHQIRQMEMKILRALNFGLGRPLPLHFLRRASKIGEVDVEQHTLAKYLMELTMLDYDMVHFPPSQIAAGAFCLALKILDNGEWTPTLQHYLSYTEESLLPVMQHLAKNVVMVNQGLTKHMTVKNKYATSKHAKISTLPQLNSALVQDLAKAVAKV

Human Carboanhydrase-2 = Human Carboanhydrase-2 (Homo sapiens, UniProt P00918); assay: Carboanhydrase Assay; format: biochemical; settings: 4-nitrophenyl acetate hydrolysis, 400 nm; read-out: Inhibition of Human Carboanhydrase-2 IC50
Protocol: 2 μl of the test compounds, dissolved in DMSO (100× the final concentration), in a concentration range of 0.03-10 μm (final), was pipetted as 4× determinations into the holes of a 96-hole microtiter plate. Holes that contained the solvent without test compounds were used as reference values (1. Holes without carboanhydrase for correction of the non-enzymatic hydrolysis of the substrate, and 2. Holes with carboanhydrase for determining the activity of the non-inhibited enzyme).
188 μl of assay buffer (10 mmol of Tris/HCl, pH 7.4, 80 mmol of NaCl), with or without 3 units/hole on carboanhydrase I or II, was pipetted into the holes of the microtiter plate.

[2] = system: DU 145, hormone-independent human prostate cancer cells; assay: Proliferation assay, DU145; format: cell-based; settings: DU-145, 96 h, 4 days incubation, crystal violet
Summary of the method: as §1

MaTu-ADR = assay: Proliferation assay, MaTu-ADR; format: cell-based; settings: Homo sapiens, 96 h, MaTu-ADR cells, 4 days incubation, crystal violet
Summary of the method: as §1

[3] = system: HCT 116, human colon cancer cells; assay: Proliferation assay, HCT116; format: cell-based; settings: HCT-116, 96 h, 4 days incubation, crystal violet
Description: Cultivated human tumor cells (MCF7, hormone-independent human breast cancer cells, related to ATCC HTB22; NCI-H460, human non-small-cell lung cancer cells, ATCC HTB-177, HCT 116, human colon cancer cells, ATCC CCL-247; DU 145, hormone-independent human prostate cancer cells, ATCC HTB-81; MaTu-MDR, hormone-independent, multiple pharmaceutical agent-resistant human breast cancer cells, EPO-GmbH, Berlin) were flattened out at a density of about 5000 cells/measuring point, depending on the growth rate of the respective cells, in a 96-well multititer plate in 200 μl of the corresponding growth medium. After 24 hours, the cells of one plate (zero-point plate) were colored with crystal violet (see below), while the medium of the other plates was replaced by fresh culture medium (200 μl), to which the test substances were added in various concentrations (0 μm, as well as in the range of 0.01-30 μm; the final concentration of the solvent dimethyl sulfoxide was 0.5%). The cells were incubated for 4 days in the presence of test substances. The cell proliferation was determined by coloring the cells with crystal violet: the cells were fixed by adding 20 μl/measuring point of an 11% glutaric aldehyde solution for 15 minutes at room temperature. After three washing cycles of the fixed cells with water, the plates were dried at room temperature. The cells were colored by adding 100 μl/measuring point of a 0.1% crystal violet solution (the pH was set at 3 by adding acetic acid). After three washing cycles of the colored cells with water, the plates were dried at room temperature. The dye was dissolved by adding 100 μl/measuring point of a 10% acetic acid solution. The extinction was determined by photometry at a wavelength of 595 nm. The change of cell growth, in percent, was calculated by normalization of the measured values to the extinction values of the zero-point plate (=0%) and the extinction of the untreated (0 μm) cells (=100%).

[4] = system: NCI-H460, human non-small-cell lung cancer cells; assay: Proliferation assay, H460; format: cell-based; settings: NCI-H460, 96 h, 4 days incubation, crystal violet
Summary of the method: as §1

[5] = target: T2, VEGF receptor tyrosine kinase-2 (Homo sapiens, UniProt P35968); assay: VEGF Receptor-2 Kinase Assay; format: biochemical; settings: poly-(Glu4Tyr) substrate, 33P-ATP, 10 minutes at 22° C.; read-out: VEGF-R2 IC50
T2 construct: GST; made in house; host or cells: baculovirus-infected insect cells (Sf9)
T2 sequence (P35968 20-1356): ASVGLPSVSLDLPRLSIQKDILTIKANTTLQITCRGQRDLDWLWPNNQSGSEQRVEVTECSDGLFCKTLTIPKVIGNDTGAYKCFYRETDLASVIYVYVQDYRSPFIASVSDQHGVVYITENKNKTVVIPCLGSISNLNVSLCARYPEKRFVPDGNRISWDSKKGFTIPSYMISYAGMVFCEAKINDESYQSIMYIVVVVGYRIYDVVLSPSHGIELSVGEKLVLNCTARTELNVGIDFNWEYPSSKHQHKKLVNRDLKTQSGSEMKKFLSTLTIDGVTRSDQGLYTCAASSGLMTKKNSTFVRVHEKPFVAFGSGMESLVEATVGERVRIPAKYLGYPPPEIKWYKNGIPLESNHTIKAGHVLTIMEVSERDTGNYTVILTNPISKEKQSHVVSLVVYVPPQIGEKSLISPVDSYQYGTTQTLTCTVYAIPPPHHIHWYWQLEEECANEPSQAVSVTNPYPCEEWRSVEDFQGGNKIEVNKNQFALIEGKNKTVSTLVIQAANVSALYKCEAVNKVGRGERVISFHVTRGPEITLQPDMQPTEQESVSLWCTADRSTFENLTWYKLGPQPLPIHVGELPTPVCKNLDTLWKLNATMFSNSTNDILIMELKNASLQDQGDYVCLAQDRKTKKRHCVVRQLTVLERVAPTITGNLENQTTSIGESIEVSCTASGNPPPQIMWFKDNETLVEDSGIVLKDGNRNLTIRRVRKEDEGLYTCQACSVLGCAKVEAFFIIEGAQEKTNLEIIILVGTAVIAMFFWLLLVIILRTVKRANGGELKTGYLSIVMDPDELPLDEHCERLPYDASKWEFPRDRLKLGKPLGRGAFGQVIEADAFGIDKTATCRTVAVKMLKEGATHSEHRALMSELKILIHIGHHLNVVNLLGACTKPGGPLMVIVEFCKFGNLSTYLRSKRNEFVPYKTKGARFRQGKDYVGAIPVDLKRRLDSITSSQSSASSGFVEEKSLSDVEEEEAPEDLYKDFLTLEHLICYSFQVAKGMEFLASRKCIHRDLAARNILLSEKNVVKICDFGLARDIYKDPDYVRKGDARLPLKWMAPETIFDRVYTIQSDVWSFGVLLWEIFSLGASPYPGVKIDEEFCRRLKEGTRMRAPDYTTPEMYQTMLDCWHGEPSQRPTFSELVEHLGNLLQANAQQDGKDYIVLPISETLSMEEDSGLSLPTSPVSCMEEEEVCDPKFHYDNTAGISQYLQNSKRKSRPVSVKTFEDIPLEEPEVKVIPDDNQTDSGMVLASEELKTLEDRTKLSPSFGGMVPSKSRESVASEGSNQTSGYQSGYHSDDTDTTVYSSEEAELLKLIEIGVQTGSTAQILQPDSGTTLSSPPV

CDK2/CycE = target: T3, CDK2/CycE (Homo sapiens, UniProt P24941); assay: CDK2/CycE Kinase Assay; format: biochemical; settings: histone IIIS substrate, 33P-ATP, 15 minutes at 22° C.
T3 construct: GST; purchased ProQinase GmbH, Freiburg; host or cells: baculovirus-infected insect cells (Sf9)
Summary of the method: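 Recombinant GST-tagged CDK2/CycE from Sf9 cells (50 ng/point) was incubated with compound (0.01-100 μM) for 15 min at 22° C, pH 8.0, with 0.5 μM ATP plus ^33P-γ-ATP and histone IIIS as substrate, in 12.5% DMSO. Incorporated ^33P was counted after filter binding and washing.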

| Compound | IC50 [1] [µM] | IC50 (CDK1/CycB) [µM] | IC50 (Human Carboanhydrase-2) [µM] | IC50 [2] [µM] | IC50 (MaTu-ADR) [µM] | IC50 [3] [µM] | IC50 [4] [µM] | IC50 [5] [µM] | IC50 (CDK2/CycE) [µM] |
| --- | --- | --- | --- | --- | --- | --- | --- | --- | --- |
| C[C@H](CO)Nc1nc(Nc2ccc(S(C)(=N)=O)cc2)ncc1Br (mixture of isomers) [Example 1.0, (RS)-S-[4-({5-Bromo-4-[(R)-(2-hydroxy-1-methylethyl)amino]pyridimin-2-yl}amino)phenyl]-S-methyl sulfoximide] | 0.3 | 0.079 | > 10 | 1.5 | 1.6 | 0.4 | 1.2 | 0.04 | < 0.01 |
| CC(C)Nc1nc(Nc2ccc(S(C)(=N)=O)cc2)ncc1Br (racemic) [Example 2.0, (RS)-S-(4-{[5-bromo-4-(isopropylamino)pyrimidin-2-yl]amino}phenyl)-S-methyl sulfoximide] | 1.5 | 0.11 | > 10 | 1.7 | 0.4 | 0.3 | 0.3 | – | – |

From patent US7338958B2, “Sulfoximine-substituted pyrimidines as CDK-and/or VEGF inhibitors, their production and use as pharmaceutical agents” (Schering AG, priority 2003, dated 2008)
